Assay results taken from patent US20170226120A1, “INHIBITORS OF HIF PROLYL HYDROXYLASE” (MERCK SHARP & DOHME CORP., priority 2014, published 2017).

Molecular target: T1, human HIF-PHD2 (Homo sapiens, UniProt Q9GZT9)
T1 construct: FLAG-tagged full length PHD2 expressed in and purified from baculovirus-infected Sf9 cells; FLAG; made in house; host or cells: baculovirus-infected Sf9 cells
Experiment: HIF-PHD2 inhibition, time resolved fluorescence assay of HIF-1α peptide hydroxylation
Type: biochemical
Conditions: FLAG-tagged full length PHD2; 0.2 μM 2-oxoglutarate, 0.5 μM HIF-1α peptide
Method: To each well of a 384-well plate, 1 μL of test compounds in DMSO (final concentration ranging from 0.3 nM to 10 uM) were added into 20 μl of assay buffer (50 mM Tris pH 7.4/0.01% Tween-20/0.1 mg/ml bovine serum albumin/10 μM ferrous sulfate/1 mM sodium ascorbate/20 μg/ml catalase) containing 0.15 μg/ml FLAG-tagged full length PHD2 expressed in and purified from baculovirus-infected Sf9 cells. After a 5 min preincubation at room temperature, the enzymatic reactions were initiated by the addition of 4 μL of substrates {final concentrations of 0.2 μM 2-oxoglutarate and 0.5 μM HIF-1α peptide biotinyl-[…] […] After incubation for 45 minutes at room temperature, the reactions were terminated by the addition of a 25 μL quench/detection mix to a final concentration of 1 mM ortho-phenanthroline, 0.1 mM EDTA, 0.5 nM anti-(His)6 LANCE reagent (Perkin-Elmer Life Sciences), 100 nM AF647-labeled streptavidin (Invitrogen), and 2 μg/ml (His)6-VHL complex {S. Tan Protein Expr. Purif.

T1 sequence (Q9GZT9 whole entry): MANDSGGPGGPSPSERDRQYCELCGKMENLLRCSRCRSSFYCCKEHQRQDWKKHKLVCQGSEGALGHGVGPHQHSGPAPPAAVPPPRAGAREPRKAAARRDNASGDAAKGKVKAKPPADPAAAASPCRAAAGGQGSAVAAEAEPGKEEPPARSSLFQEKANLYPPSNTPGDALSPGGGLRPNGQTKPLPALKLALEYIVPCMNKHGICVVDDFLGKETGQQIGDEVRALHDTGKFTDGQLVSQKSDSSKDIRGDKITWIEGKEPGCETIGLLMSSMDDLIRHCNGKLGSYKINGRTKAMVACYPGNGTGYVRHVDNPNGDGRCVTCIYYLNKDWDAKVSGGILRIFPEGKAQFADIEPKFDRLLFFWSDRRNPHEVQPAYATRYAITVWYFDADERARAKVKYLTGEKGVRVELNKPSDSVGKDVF

Row | IC50 [nM] | Structure (SMILES)
1 | 8 | O=C(O)CNC(=O)c1c(O)c2c(n(Cc3cccc(C(=O)O)c3)c1=O)COC2 [Example 59, 3-((3-((carboxymethyl)carbamoyl)-4-hydroxy-2-oxofuro[3,4-b]pyridin-1(2H,5H,7H)-yl)methyl)benzoic acid]
2 | 3.3 | O=C(O)CNC(=O)c1c(O)c2c(n(Cc3ccc(C(F)(F)F)c(Br)c3)c1=O)COC2 [Example 45, 2-(1-(3-bromo-4-(trifluoromethyl)benzyl)-4-hydroxy-2-oxo-1,2,5,7-tetrahydrofuro[3,4-b]pyridine-3-carboxamido)acetic acid]
3 | 109 | O=C(N[C@@H](CO)C(=O)O)c1c(O)c2c(n(Cc3ccc(C(F)(F)F)cc3)c1=O)COC2 [Example 2, (S)-3-hydroxy-2-(4-hydroxy-2-oxo-1-(4-(trifluoromethyl)benzyl)-1,2,5,7-tetrahydrofuro[3,4-b]pyridine-3-carboxamido)propanoic acid]
4 | 5.7 | O=C(O)CNC(=O)c1c(O)c2c(n(Cc3cncc(F)c3)c1=O)COC2 [Example 10, 2-(1-((5-fluoropyridin-3-yl)methyl)-4-hydroxy-2-oxo-1,2,5,7-tetrdhydrofuro[3,4-b]pyridine-3-carboxamido)acetic acid]
5 | 6.8 | O=C(O)CNC(=O)c1c(O)c2c(n(Cc3ccc4ccccc4c3)c1=O)COC2 [Example 47, 2-(4-hydroxy-1-(naphthalen-2-ylmethyl)-2-oxo-1,2,5,7-tetrahydrofuro[3,4-b]pyridine-3-carboxamido)acetic acid]
6 | 7.1 | Cn1ccc(Cn2c3c(c(O)c(C(=O)NCC(=O)O)c2=O)COC3)n1 [Example 16, 2-(4-hydroxy-1-((1-methyl-1H-pyrazol-3-yl)methyl)-2-oxo-1,2,5,7-tetrahydrofuro[3,4-b]pyridine-3-carboxamido)acetic acid]
7 | 11.8 | O=C(O)CNC(=O)c1c(O)c2c(n(Cc3ccc4[nH]cnc4c3)c1=O)COC2 [Example 65, 2-(1-((1H-Benzo[d]imidazol-5-yl)methyl)-4-hydroxy-2-oxo-1,2,5,7-tetrahydrofuro[3,4-b]pyridine-3-carboxamido)acetic acid]
8 | 19.6 | CC(c1ccc(C(F)(F)F)cc1)n1c2c(c(O)c(C(=O)NCC(=O)O)c1=O)COC2 (centres unmarked) [Example 56, 2-(4-hydroxy-2-oxo-1-(1-(4-(trfluoromethyl)phenyl)ethyl)-1,2,5,7-tetrahydrofuro[3,4-b]pyridine-3-carboxamido)acetic acid]
9 | 19.7 | COC(=O)c1ccccc1Cn1c2c(c(O)c(C(=O)NCC(=O)O)c1=O)COC2 [Example 39, 2-(4-hydroxy-1-(2-(methoxycarbonyl)benzyl)-2-oxo-1,2,5,7-tetrahydrofuro[3,4-b]pyridine-3-carboxamido)acetic acid]
10 | 3 | N#Cc1ccc(Cn2c3c(c(O)c(C(=O)NCC(=O)O)c2=O)COC3)c(F)c1 [Example 13, 2-(1-(4-cyano-2-fluorobenzyl)-4-hydroxy-2-oxo-1,2,5,7-tetrahydrofuro[3,4-b]pyridine-3-carboxamido)acetic acid]
11 | 17.4 | CCn1c2c(c(O)c(C(=O)NCC(=O)O)c1=O)COC2 [Example 54, 2-(1-ethyl-4-hydroxy-2-oxo-1,2,5,7-tetrahydrofuro[3,4-b]pyridine-3-carboxamido)acetic acid]
12 | 7.2 | O=C(O)CNC(=O)c1c(O)c2c(n(Cc3ccc(C(=O)O)cc3)c1=O)COC2 [Example 57, 4-((3-((Carboxymethyl)carbamoyl)-4-hydroxy-2-oxofuro[3,4-b]pyridin-1(2H,5H,7H)-yl)methyl)benzoic acid]
13 | 3.7 | C=Cc1ccc(Cn2c3c(c(O)c(C(=O)NCC(=O)O)c2=O)COC3)cn1 [Example 62, 2-(4-Hydroxy-2-oxo-1-((6-vinylpyridin-3-yl)methyl)-1,2,5,7-tetrahydrofuro[3,4-b]pyridine-3-carboxamido)acetic acid]
14 | 5.1 | Cc1cc(C#N)ccc1Cn1c2c(c(O)c(C(=O)NCC(=O)O)c1=O)COC2 [Example 49, 2-(1-(4-cyano-2-methylbenzyl)-4-hydroxy-2-oxo-1,2,5,7-tetrahydrofuro[3,4-b]pyridine-3-carboxamido)acetic acid]
15 | 8.4 | O=C(O)CNC(=O)c1c(O)c2c(n(Cc3cccc(F)c3)c1=O)COC2 [Example 43, 2-(1-(3-fluorobenzyl)-4-hydroxy-2-oxo-1,2,5,7-tetrahydrofuro[3,4-b]pyridine-3-carboxamido)acetic acid]
16 | 7.1 | N#Cc1ccc(Cn2c3c(c(O)c(C(=O)NCC(=O)O)c2=O)COC3)cc1F [Example 53, 2-(1-(4-cyano-3-fluorobenzyl)-4-hydroxy-2-oxo-1,2,5,7-tetrahydrofuro[3,4-b]pyridine-3-carboxamido)acetic acid]

Row | IC50 [nM] | Structure (SMILES)
17 | 1.2 | Cc1cc(C(=O)O)ccc1-c1ccc(Cn2c3c(c(O)c(C(=O)NCC(=O)O)c2=O)COC3)cc1 [Example 64, 4′-((3-((Carboxymethyl)carbamoyl)-4-hydroxy-2-oxofuro[3,4-b]pyridin-1(2H,5H,7H)-yl)methyl)-2-methyl-[1,1′-biphenyl]-4-carboxylic acid]
18 | 7 | CS(=O)(=O)c1ccc(Cn2c3c(c(O)c(C(=O)NCC(=O)O)c2=O)COC3)cc1 [Example 7, 2-(4-hydroxy-1-(4-(methylsulfonyl)benzyl)-2-oxo-1,2,5,7-tetrahydrofuro[3,4-b]pyridine-3-carboxamido)acetic acid]
19 | 4.8 | O=C(O)CNC(=O)c1c(O)c2c(n(Cc3ccccn3)c1=O)COC2 [Example 36, 2-((3-((carboxymethyl)carbamoyl)-4-hydroxy-2-oxofuro[3,4-b]pyridin-1(2H,5H,7H)-yl)methyl)pyridin-1-ium chloride]
20 | 4.3 | O=C(O)CNC(=O)c1c(O)c2c(n(Cc3cccc(Cl)c3)c1=O)COC2 [Example 38, 2-(1-(3-chlorobenzyl)-4-hydroxy-2-oxo-1,2,5,7-tetrahydrofuro[3,4-b]pyridine-3-carboxamido)acetic acid]
21 | 8.1 | COC(=O)c1cccc(Cn2c3c(c(O)c(C(=O)NCC(=O)O)c2=O)COC3)c1 [Example 40, 2-(4-hydroxy-1-(3-(methoxycarbonyl)benzyl)-2-oxo-1,2,5,7-tetrahydrofuro[3,4-b]pyridine-3-carboxamido)acetic acid]
22 | 4.3 | NC(=O)c1ccc(Cn2c3c(c(O)c(C(=O)NCC(=O)O)c2=O)COC3)cc1 [Example 60, 2-(1-(4-Carbamoylbenzyl)-4-hydroxy-2-oxo-1,2,5,7-tetrahydrofuro[3,4-b]pyridine-3-carboxamido)acetic acid]
23 | 2.7 | O=C(O)CNC(=O)c1c(O)c2c(n(Cc3ccc(Cl)cc3F)c1=O)COC2 [Example 52, 2-(1-(4-chloro-2-fluorobenzyl)-4-hydroxy-2-oxo-1,2,5,7-tetrahydrofuro[3,4-b]pyridine-3-carboxamido)acetic acid]
24 | 12.6 | O=C(O)CNC(=O)c1c(O)c2c(n(Cc3cnc4ccccc4c3)c1=O)COC2 [Example 48, 2-(4-hydroxy-2-oxo-1-(quinolin-3-ylmethyl)-1,2,5,7-tetrahydrofuro[3,4-b]pyridine-3-carboxamido)acetic acid]
25 | 17.4 | O=C(O)CNC(=O)c1c(O)c2c(n(Cc3ccccc3C(=O)O)c1=O)COC2 [Example 58, 2-((3-((carboxymethyl)carbamoyl)-4-hydroxy-2-oxofuro[3,4-b]pyridin-1(2H,5H,7H)-yl)methyl)benzoic acid]
26 | 6.6 | O=C(O)CNC(=O)c1c(O)c2c(n(Cc3ccc(F)cn3)c1=O)COC2 [Example 14, 2-(1-((5-fluoropyridin-2-yl)methyl)-4-hydroxy-2-oxo-1,2,5,7-tetrahydrofuro[3,4-b]pyridine-3-carboxamido)acetic acid]
27 | 36.4 | C[C@H](NC(=O)c1c(O)c2c(n(Cc3ccc(C(F)(F)F)cc3)c1=O)COC2)C(=O)O [Example 3, (S)-2-(4-hydroxy-2-oxo-1-(4-(trifluoromethyl)benzyl)-1,2,5,7-tetrahydrofuro[3,4-b]pyridine-3-carboxamido)propanoic acid]
28 | 2.8 | COc1ccc(Cn2c3c(c(O)c(C(=O)NCC(=O)O)c2=O)COC3)cc1 [Example 28, 2-(4-hydroxy-1-(4-methoxybenzyl)-2-oxo-1,2,5,7-tetrahydrofuro[3,4-b]pyridine-3-carboxamido)acetic acid]
29 | 3.1 | Cc1cc(Cn2c3c(c(O)c(C(=O)NCC(=O)O)c2=O)COC3)ccc1C#N [Example 44, 2-(1-(4-cyano-3-methylbenzyl)-4-hydroxy-2-oxo-1,2,5,7-tetrahydrofuro[3,4-b]pyridine-3-carboxamido)acetic acid]
30 | 2.7 | O=C(O)CNC(=O)c1c(O)c2c(n(Cc3ccc(F)cc3)c1=O)COC2 [Example 26, 2-(1-(4-fluorobenzyl)-4-hydroxy-2-oxo-1,2,5,7-tetrahydrofuro[3,4-b]pyridine-3-carboxamido)acetic acid]
31 | 4.6 | N#Cc1ccccc1Cn1c2c(c(O)c(C(=O)NCC(=O)O)c1=O)COC2 [Example 33, 2-(1-(2-cyanobenzyl)-4-hydroxy-2-oxo-1,2,5,7-tetrahydrofuro[3,4-b]pyridine-3-carboxamido)acetic acid]
32 | 10.4 | Cn1c2c(c(O)c(C(=O)NCC(=O)O)c1=O)COC2 [Example 55, 2-(1-methyl-4-hydroxy-2-oxo-1,2,5,7-tetrahydrofuro[3,4-b]pyridine-3-carboxamido)acetic acid]
